Source: patent publication US20230120736A1, “ANTI-CD98 ANTIBODIES AND ANTIBODY DRUG CONJUGATES” (AbbVie Inc., priority 2016, published 2023)

Columns and labels:
[1] = test system: NCI-H460 human lung carcinoma xenograft; test: NCI-H460 xenograft tumor growth inhibition, with or without docetaxel; type: in vivo, mouse; conditions: QDx1, Ab095 8 IP, docetaxel 7.5 IV, ADC 10 mg/kg/day IP
Protocol: (§1) The cell lines A549 and NCI-H460 were obtained from the American Type Culture Collection (ATCC, Manassas, Va.). A549 cell line was further passaged in mice as flank xenograft to improve xenograft tumor growth, resulting in the A549-FP3 line. Cells were cultured as monolayers in RPMI-1640 culture media (Invitrogen, Carlsbad, Calif.) supplemented with 10% Fetal Bovine Serum (FBS, Hyclone, Logan, Utah). To generate xenografts, 5×10^6 (A549 and NCI-H460) viable cells were inoculated subcutaneously into the right flank of immune deficient female SCID-bg mice (Charles River Laboratories, Wilmington, Mass.). The injection volume was 0.2 ml and composed of 1:1 S-MEM:Matrigel Matrigel (BD, Franklin Lakes, N.J.). Tumors were size matched at approximately 223 mm^3. […] Measurements of the length (L) and width (W) of the tumor were taken via electronic caliper and the volume was calculated according to the following equation: V=L×W^2/2. […]
(§2) To refer to efficacy of therapeutic agents, parameters of amplitude (TGI.), durability (TGD) are used. […] Tumor growth inhibition is calculated by 100*(1−Tv/Cv) where Tv and Cv are the mean tumor volumes of the treated and control groups, respectively. […] TGD is calculated by 100*(Tt/Ct−1) where Tt and Ct are the median time periods to reach 1 cm^3 of the treated and control groups, respectively.

[2] = test system: A549 human lung carcinoma xenograft; test: A549 FP3 xenograft tumor growth inhibition, with or without docetaxel; type: in vivo, mouse; conditions: QDx1, Ab095 8 IP, docetaxel 7.5 IV, ADC 10 mg/kg/day IP
Protocol: as §1, §2

`CC(=O)O[C@@]12CO[C@@H]1C[C@H](O)[C@@]1(C)C(=O)[C@H](O)C3=C(C)[C@@H](OC(=O)[C@H](O)[C@@H](NC(=O)OC(C)(C)C)c4ccccc4)C[C@@](O)([C@@H](OC(=O)c4ccccc4)[C@H]21)C3(C)C` [Docetaxel, docetaxel, reference compound] was tested, and the TGD [1] was 30%, the TGImax [1] was 35% and the TGD [2] was 80%. For the same molecule, the TGImax [2] was 62%.
